Data published in patent US6358885B1, “Substituted phenylheterocyclic herbicides” (Mississippi State University, priority 1992, dated 2002).

Experiments:
barley [1] = test: Test B preemergence/postemergence greenhouse plant response rating 0 to 10; assay type: in vivo, Hordeum vulgare; conditions: 0 to 10 scale
In short: (§1)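 Planted seeds are treated preemergence with compound dissolved in a non-phytotoxic solvent, while postemergence applications go onto plants of two to eighteen cm. Plants stay in the greenhouse twelve to sixteen days and are then rated visually relative to controls.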

bedstraw = test: as above; assay type: in vivo, Galium aparine; conditions: 0 to 10 scale
In short: as §1

chickweed [2] = test: as above; assay type: in vivo, Stellaria media; conditions: 0 to 10 scale
In short: as §1

cocklebur = test: as above; assay type: in vivo, Xanthium pensylvanicum; conditions: 0 to 10 scale
In short: as §1

morningglory = test: as above; assay type: in vivo, Ipomoea hederacea; conditions: 0 to 10 scale
In short: as §1

sorghum = test: as above; assay type: in vivo, Sorghum bicolor; conditions: 0 to 10 scale
In short: as §1

soybean [3] = test: as above; assay type: in vivo, Glycine max; conditions: 0 to 10 scale
In short: as §1

sugar beet = test: as above; assay type: in vivo, Beta vulgaris; conditions: 0 to 10 scale
In short: as §1

velvetleaf = test: as above; assay type: in vivo, Abutilon theophrasti; conditions: 0 to 10 scale
In short: as §1

wild buckwheat = test: as above; assay type: in vivo, Polygonum convolvulus; conditions: 0 to 10 scale
In short: as §1

barley [4] = test: Test C preemergence/postemergence greenhouse plant response rating 0 to 100; assay type: in vivo, Hordeum vulgare; conditions: POSTEMERGENCE; for Plant response rating Barley Igri: 0 to 100 scale
In short: (§2)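 Compounds in non-phytotoxic solvent applied preemergence to sandy loam one day after planting, postemergence at the 1–4 leaf stage, or to ~2.5 cm floodwater over silt loam.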

blackgrass = test: as above; assay type: in vivo, Alopecurus myosuroides; conditions: POSTEMERGENCE; for Plant response rating, Blackgrass: 0 to 100 scale
In short: as §2

chickweed [5] = test: as above; assay type: in vivo, Stellaria media; conditions: POSTEMERGENCE; for Plant response rating, Chickweed: 0 to 100 scale
In short: as §2

pigweed = test: as above; assay type: in vivo, Amaranthusretroflexus; conditions: POSTEMERGENCE; for Plant response rating Pigweed: 0 to 100 scale
In short: as §2

rape = test: as above; assay type: in vivo, Brassica napus; conditions: POSTEMERGENCE; for Plant response rating, Rape: 0 to 100 scale
In short: as §2

ryegrass = test: as above; assay type: in vivo, Lolium multiflorum; conditions: POSTEMERGENCE; for Plant response rating Ryegrass: 0 to 100 scale
In short: as §2

soybean [6] = test: as above; assay type: in vivo, Glycine max; conditions: POSTEMERGENCE; for Plant response rating, Soybean: 0 to 100 scale
In short: as §2

umbrella sedge = test: Test C flood test plant response rating 0 to 100; assay type: in vivo, Cyperus difformis; conditions: for Plant response rating (0 to 100), Umbrella sedge: under POSTEMERGENCE head (flood test species); for Plant response rating Umbrella sedge: flood test species listed under POSTEMERGENCE, 0 to 100 scale
In short: as §2

Question: With `C=C(Cl)COc1cc(-c2nn3c(c2Cl)CCCC3)c(F)cc1Cl` [Compound 40] as the compound, how does the “Plant response rating, Barley” value (barley [1]; POSTEMERGENCE, Rate 50 g/ha) read?
Answer: The value was 4.

Question: And the “Plant response rating, Barley” value (barley [1]; POSTEMERGENCE, Rate 200 g/ha)?
Answer: The value was 5.

Question: What about the “Plant response rating, Barley” value (barley [1]; PREEMERGENCE, Rate 50 g/ha) of the same compound?
Answer: The value was 0.

Question: And the “Plant response rating, Barley” value (barley [1]; Rate 200 g/ha, PREEMERGENCE)?
Answer: The value was 1.

Question: And the “Plant response rating, Bedstraw” value (bedstraw; POSTEMERGENCE, Rate 50 g/ha)?
Answer: Its value is 10.

Question: What about the “Plant response rating, Bedstraw” value (bedstraw; PREEMERGENCE, Rate 50 g/ha) of the same compound?
Answer: Its value is 9.

Question: What about the “Plant response rating, Bedstraw” value (bedstraw; Rate 200 g/ha, PREEMERGENCE) of the same compound?
Answer: The value was 9.

Question: What about the “Plant response rating, Chickweed” value (chickweed [2]; POSTEMERGENCE, Rate 50 g/ha) of the same compound?
Answer: The value was 10.

Question: What about the “Plant response rating, Chickweed” value (chickweed [2]; POSTEMERGENCE, Rate 200 g/ha) of the same compound?
Answer: Its value is 10.

Question: And the “Plant response rating, Chickweed” value (chickweed [2]; PREEMERGENCE, Rate 50 g/ha)?
Answer: Its value is 0.

Question: What about the “Plant response rating, Chickweed” value (chickweed [2]; Rate 200 g/ha, PREEMERGENCE) of the same compound?
Answer: The value was 5.

Question: And the “Plant response rating, Cocklebur” value (cocklebur; POSTEMERGENCE, Rate 50 g/ha)?
Answer: The value was 5.

Question: What about the “Plant response rating, Cocklebur” value (cocklebur; POSTEMERGENCE, Rate 200 g/ha) of the same compound?
Answer: Its value is 10.

Question: And the “Plant response rating, Cocklebur” value (cocklebur; PREEMERGENCE, Rate 50 g/ha)?
Answer: The value was 5.

Question: And the “Plant response rating, Cocklebur” value (cocklebur; Rate 200 g/ha, PREEMERGENCE)?
Answer: Its value is 8.

Question: What about the “Plant response rating, Morningglory” value (morningglory; POSTEMERGENCE, Rate 50 g/ha) of the same compound?
Answer: Its value is 3.

Question: And the “Plant response rating, Morningglory” value (morningglory; PREEMERGENCE, Rate 50 g/ha)?
Answer: Its value is 1.

Question: And the “Plant response rating, Morningglory” value (morningglory; Rate 200 g/ha, POSTEMERGENCE)?
Answer: Its value is 9.

Question: And the “Plant response rating, Morningglory” value (morningglory; Rate 200 g/ha, PREEMERGENCE)?
Answer: Its value is 4.

Question: And the “Plant response rating, Sorghum” value (sorghum; POSTEMERGENCE, Rate 50 g/ha)?
Answer: Its value is 4.

Question: What about the “Plant response rating, Sorghum” value (sorghum; PREEMERGENCE, Rate 50 g/ha) of the same compound?
Answer: Its value is 0.

Question: What about the “Plant response rating, Sorghum” value (sorghum; Rate 200 g/ha, POSTEMERGENCE) of the same compound?
Answer: Its value is 5.

Question: And the “Plant response rating, Sorghum” value (sorghum; Rate 200 g/ha, PREEMERGENCE)?
Answer: The value was 1.

Question: And the “Plant response rating, Soybean” value (soybean [3]; POSTEMERGENCE, Rate 50 g/ha)?
Answer: Its value is 5.

Question: What about the “Plant response rating, Soybean” value (soybean [3]; PREEMERGENCE, Rate 50 g/ha) of the same compound?
Answer: Its value is 0.

Question: And the “Plant response rating, Soybean” value (soybean [3]; Rate 200 g/ha, POSTEMERGENCE)?
Answer: The value was 8.

Question: What about the “Plant response rating, Soybean” value (soybean [3]; Rate 200 g/ha, PREEMERGENCE) of the same compound?
Answer: Its value is 2.

Question: And the “Plant response rating, Sugar beet” value (sugar beet; POSTEMERGENCE, Rate 50 g/ha)?
Answer: Its value is 10.

Question: What about the “Plant response rating, Sugar beet” value (sugar beet; PREEMERGENCE, Rate 50 g/ha) of the same compound?
Answer: Its value is 9.

Question: And the “Plant response rating, Sugar beet” value (sugar beet; Rate 200 g/ha, POSTEMERGENCE)?
Answer: Its value is 10.

Question: What about the “Plant response rating, Sugar beet” value (sugar beet; Rate 200 g/ha, PREEMERGENCE) of the same compound?
Answer: The value was 9.

Question: What about the “Plant response rating, Velvetleaf” value (velvetleaf; POSTEMERGENCE, Rate 50 g/ha) of the same compound?
Answer: The value was 2.

Question: And the “Plant response rating, Velvetleaf” value (velvetleaf; PREEMERGENCE, Rate 50 g/ha)?
Answer: Its value is 2.

Question: And the “Plant response rating, Velvetleaf” value (velvetleaf; Rate 200 g/ha, POSTEMERGENCE)?
Answer: Its value is 10.

Question: And the “Plant response rating, Velvetleaf” value (velvetleaf; Rate 200 g/ha, PREEMERGENCE)?
Answer: The value was 8.

Question: What about the “Plant response rating, Wild buckwheat” value (wild buckwheat; POSTEMERGENCE, Rate 50 g/ha) of the same compound?
Answer: Its value is 9.

Question: What about the “Plant response rating, Wild buckwheat” value (wild buckwheat; Rate 200 g/ha, POSTEMERGENCE) of the same compound?
Answer: The value was 10.

Question: And the “Plant response rating, Wild buckwheat” value (wild buckwheat; Rate 200 g/ha, PREEMERGENCE)?
Answer: Its value is 9.

Question: What about the “Plant response rating Barley Igri” value (barley [4]; 62 g/ha) of the same compound?
Answer: The value was 30.

Question: What about the “Plant response rating Barley Igri” value (barley [4]; 125 g/ha) of the same compound?
Answer: The value was 40.

Question: And the “Plant response rating (0 to 100), Barley Igri” value (barley [4]; Rate 16 g/ha)?
Answer: Its value is 20.

Question: What about the “Plant response rating (0 to 100), Barley Igri” value (barley [4]; Rate 31 g/ha) of the same compound?
Answer: Its value is 30.

Question: What about the “Plant response rating, Blackgrass” value (blackgrass; 62 g/ha) of the same compound?
Answer: Its value is 50.

Question: And the “Plant response rating, Blackgrass” value (blackgrass; 125 g/ha)?
Answer: The value was 70.

Question: What about the “Plant response rating (0 to 100), Blackgrass” value (blackgrass; Rate 16 g/ha) of the same compound?
Answer: The value was 20.

Question: What about the “Plant response rating (0 to 100), Blackgrass” value (blackgrass; Rate 31 g/ha) of the same compound?
Answer: The value was 30.

Question: What about the “Plant response rating, Chickweed” value (chickweed [5]; 62 g/ha) of the same compound?
Answer: Its value is 60.

Question: What about the “Plant response rating, Chickweed” value (chickweed [5]; 125 g/ha) of the same compound?
Answer: Its value is 90.

Question: What about the “Plant response rating (0 to 100), Chickweed” value (chickweed [5]; Rate 16 g/ha) of the same compound?
Answer: The value was 30.

Question: What about the “Plant response rating (0 to 100), Chickweed” value (chickweed [5]; Rate 31 g/ha) of the same compound?
Answer: Its value is 30.

Question: And the “Plant response rating Pigweed” value (pigweed; 62 g/ha)?
Answer: Its value is 100.

Question: What about the “Plant response rating Pigweed” value (pigweed; 125 g/ha) of the same compound?
Answer: The value was 100.

Question: What about the “Plant response rating (0 to 100), Pigweed” value (pigweed; Rate 16 g/ha) of the same compound?
Answer: Its value is 90.

Question: What about the “Plant response rating (0 to 100), Pigweed” value (pigweed; Rate 31 g/ha) of the same compound?
Answer: The value was 95.

Question: And the “Plant response rating, Rape” value (rape; 62 g/ha)?
Answer: The value was 70.

Question: What about the “Plant response rating, Rape” value (rape; 125 g/ha) of the same compound?
Answer: Its value is 70.

Question: And the “Plant response rating (0 to 100), Rape” value (rape; Rate 16 g/ha)?
Answer: The value was 50.

Question: And the “Plant response rating (0 to 100), Rape” value (rape; Rate 31 g/ha)?
Answer: The value was 70.

Question: What about the “Plant response rating Ryegrass” value (ryegrass; 62 g/ha) of the same compound?
Answer: The value was 30.

Question: What about the “Plant response rating Ryegrass” value (ryegrass; 125 g/ha) of the same compound?
Answer: The value was 40.

Question: What about the “Plant response rating (0 to 100), Ryegrass” value (ryegrass; Rate 16 g/ha) of the same compound?
Answer: Its value is 10.

Question: And the “Plant response rating (0 to 100), Ryegrass” value (ryegrass; Rate 31 g/ha)?
Answer: Its value is 20.

Question: And the “Plant response rating, Soybean” value (soybean [6]; 62 g/ha)?
Answer: The value was 50.

Question: What about the “Plant response rating, Soybean” value (soybean [6]; 125 g/ha) of the same compound?
Answer: The value was 60.

Question: And the “Plant response rating (0 to 100), Soybean” value (soybean [6]; Rate 16 g/ha)?
Answer: Its value is 40.

Question: And the “Plant response rating (0 to 100), Soybean” value (soybean [6]; Rate 31 g/ha)?
Answer: The value was 40.

Question: What about the “Plant response rating (0 to 100), Umbrella sedge” value (umbrella sedge; Rate 16 g/ha) of the same compound?
Answer: The value was 0.

Question: And the “Plant response rating (0 to 100), Umbrella sedge” value (umbrella sedge; Rate 31 g/ha)?
Answer: The value was 0.

Question: What about the “Plant response rating Umbrella sedge” value (umbrella sedge; 62 g/ha) of the same compound?
Answer: Its value is 10.

Question: What about the “Plant response rating Umbrella sedge” value (umbrella sedge; 125 g/ha) of the same compound?
Answer: Its value is 70.
